Results as given in US20090041719A1, “Method for screening therapeutic agent for glomerular disorder” (priority 2006, published 2009).
Several values for one entry are separate records, joined by “and”; a condition that tells them apart may be missing. Identical values can stand only once.

Assays:
FRP-1/CD98/4F2hc = experiment: FACScan of FRP-1/CD98/4F2hc expression on macrophage fraction of LPS-stimulated human PBMC (monoclonal antibodies 4-5-1, 6-1-3, HBJ-127); format: cell-based
[1] = tested on: puromycin-induced acute nephrosis model; experiment: Puromycin-induced acute nephrosis model: urinary albumin excretion; format: in vivo, SD (Sprague-Dawley) rat
Procedure: It is known that a single intravenous dose of 50 mg/kg of puromycin to a 5-week-old SD (Sprague-Dawley) male rat damages the glomerular epithelial cells, causing severe proteinuria peaking from day 6 to day 14 and gradually decreasing thereafter, and again showing tubular proteinuria (see J. R. Diamond, and M. J. Karnovsky: Focal and segmental glomerulosclerosis following a single intravenous dose of puromycin aminonucleoside, Am. J. Pathol; 1986; 122; 481-487) (hereinafter, this model will be referred to as puromycin-induced acute nephrosis model). Using the above puromycin-induced acute nephrosis model as a model of glomerular lesions, the combinational effect of interferon γ and the composition for preventing, ameliorating, or treating glomerular lesions or disease of kidney was examined. To a 5-week-old SD (Sprague-Dawley) male rat, 30 mg/kg/day of said composition (6-2) was subcutaneously administered every day from five days before the administration of puromycin, and at the same time, 0.25 ml (2.3×10^4U) of rat recombinant interferon γ (by PeproTeck, final concentration: 9.09 μg/ml) was intraperitoneally administered on alternate days from five days before the administration of puromycin, followed by a single intravenous dose of 50 mg/kg of puromycin. Even after the administration of puromycin, the same amount of the composition (6-2) and the rat recombinant interferon γ were continuously administered every day and on alternate days respectively. On days 6, 12, and 19 after the administration of puromycin, 24-hour urine collection was performed to measure the amount of rat urinary albumin excretion by ELIZA method. At the same time, the urinary creatinine concentration was also measured by enzyme method. As indexes of glomerular epithelial damage, albumin excretion and the ratio of urinary albumin excretion to urinary creatinine were compared.

rBAT [2] = experiment: rBAT on large-cell fraction of interferon γ-stimulated THP-1, peak value by FACScan; format: cell-based, human
Procedure: The same procedures as in Experimental Example 2 were taken except the following conditions: human leukemia culture cell line THP-1 was used instead of the human peripheral blood mononuclear cells; the final addition concentration of the test compound (6-2) was set to 100 nM; fetal bovine serum was used instead of the human AB serum; and human recombinant interferon γ (PHP050, Serotec) (final concentration: 100 ng/ml) was used instead of LPS. Also, using rabbit anti-human 4F2hc polyclonal antibodies (see Biol Pharm Bull 30: 415-422, 2007) as the primary antibody, the peak value of HAT expressed on the fraction of large-cells in human leukemia culture cell strain THP-1, compared with those not stimulated with LPS, was measured. As a control, the one with no test-compound (DMSO alone) was used, and the rabbit anti-human rBAT polyclonal antibodies were obtained in the same manner as in Experimental Example 2.

rBAT [3] = experiment: HAT heavy chain rBAT on large-monocyte fraction of LPS-stimulated human PBMC, peak value by FACScan; format: cell-based
Procedure: In the same manner as in 1) to 5) of Experimental Example 1, to human peripheral blood mononuclear cells, the test compound (6-2) (final concentration: 10 nM) or the test compound (7-3) (final concentration: 100 nM) was added at the same time when LPS (final concentration: 80 μg/ml) was added, followed by 6-day culture. Further, in the same manner as above, using rabbit anti-human 4F2hc polyclonal antibodies (see Biol Pharm Bull 30:415-422, 2007) as a primary antibody, the peak value of HAT expressed on the fraction of large-macrophages (larger than monocyte macrophages) in human PBMC was measured by FACScan using a commercially available cell fix/cell membrane infiltration kit (trade name: BD Cytofix/Cytoperm™ Kit, catalog No. 554714, BD Biosciences).
As a control, the one with no test-compound addition was used, and as a rabbit anti-human rBAT (related to b^0,+-type amino acid transporter) polyclonal antibody, the one obtained by coupling a synthesized peptide composed of an amino-terminal of human rBAT (MAEDKSKRDSIEMSMKGC (SEQ ID NO: 2)) and a carboxyl-terminal of mouse b^0,+AT (BAT1) (CHLQMLEWPEKDPE (SEQ ID NO: 3)) to a carrier KLH (keyhole-limpet hemocyanin), and immunizing a rabbit with it.

[4] = human PBMC + LPS 80 μg/ml, 6-day culture, test compound 10 nM

O=C1CCC(F)(C(=O)OCc2ccccc2)O1 (stereo not drawn) [Compound (6-2)]
expression of the FRP-1/CD98/4F2hc molecule lowered to (FRP-1/CD98/4F2hc; a different normal human PBMC, where expression was enhanced to 90% or more, not shown in Table): ≤ 5% | Migration of FRP-1/CD98/4F2hc expression of macrophage fraction by FACScan (migration rate %), monoclonal antibody 4-5-1 (FRP-1) (FRP-1/CD98/4F2hc; [4]): 32.7% | Migration of FRP-1/CD98/4F2hc expression of macrophage fraction by FACScan (migration rate %), monoclonal antibody 6-1-3 (FRP-1) (FRP-1/CD98/4F2hc; [4]): 29.8% | Migration of FRP-1/CD98/4F2hc expression of macrophage fraction by FACScan (migration rate %), monoclonal antibody HBJ-127 (CD98) (FRP-1/CD98/4F2hc; [4]): 11.0% | expression of FRP-1/CD98/4F2hc on macrophage fraction of human PBMC (in words) (FRP-1/CD98/4F2hc; stimulated and cultured with LPS, summary of Table 1): increased the expression | Albumin Excretion, Day 6 ([1]; group average): 98.3 mg/day | Albumin Excretion, Day 12 ([1]; group average): 182.6 mg/day | Albumin Excretion, Day 19 ([1]; group average): 101.0 mg/day | Urinary Albumin Excretion/Urinary Creatinine, Day 6 ([1]; group average): 16.7 1/Cr | Urinary Albumin Excretion/Urinary Creatinine, Day 12 ([1]; group average): 29.1 1/Cr | Urinary Albumin Excretion/Urinary Creatinine, Day 19 ([1]; group average): 15.8 1/Cr | Urinary Albumin Excretion/Urinary Creatinine, Day 6 ([1]; individual animal): 12.1 1/Cr and 21.2 1/Cr | Urinary Albumin Excretion/Urinary Creatinine, Day 12 ([1]; individual animal): 22.3 1/Cr and 35.8 1/Cr | Urinary Albumin Excretion/Urinary Creatinine, Day 19 ([1]; individual animal): 11.0 1/Cr and 20.5 1/Cr | Albumin Excretion, Day 6 ([1]; individual animal, 24-hour urine, day 6 after puromycin, compound 30 mg/kg/day s.c., 30 mg/kg/day): 80.7 mg/day and 115.9 mg/day | Albumin Excretion, Day 12 ([1]; individual animal, 24-hour urine, day 12 after puromycin, compound 30 mg/kg/day s.c., 30 mg/kg/day): 136.0 mg/day and 229.1 mg/day | Albumin Excretion, Day 19 ([1]; individual animal, 24-hour urine, day 19 after puromycin, compound 30 mg/kg/day s.c., 30 mg/kg/day): 73.4 mg/day and 128.6 mg/day | Change in HAT expressed on large-cell fraction of THP-1 (peak value by FACScan), rBAT (rBAT [2]; THP-1 + human recombinant interferon γ 100 ng/ml, test compound 100 nM, solvent control 55): 50 | amount of rBAT (in words) (rBAT [2]; THP-1 + interferon γ, summary of Table 4): without any influence | Change in HAT expressed on large-monocyte fraction of human PBMC (peak value by FACScan), rBAT (rBAT [3]; human PBMC + LPS 80 μg/ml, 6-day culture, test compound 10 nM, solvent control 37): 40 | amount of rBAT (in words) (rBAT [3]; human PBMC + LPS, summary of Table 2): without any influence
